Legend:
[1] = xn = mol fraction of the nth substance listed; details: 101 kPa, Liquid; for speed of sound: Sing-around technique in a fixed-path interferometer; for mass density: Vibrating tube method
[2] = refractive index (Na D-line) (dimensionless); xn = mol fraction of the nth substance listed; details: 101 kPa, Liquid, Standard Abbe refractometry

CCCCCCn1cc[n+](C)c1.N#CN=C=[N-] [1-hexyl-3-methylimidazolium dicyanamide] + O
Details	mass density, 288.15 K [kg/m3]	mass density, 298.15 K [kg/m3]	mass density, 308.15 K [kg/m3]	refractive index, 288.15 K	refractive index, 298.15 K	refractive index, 308.15 K	speed of sound, 288.15 K [m/s]	speed of sound, 298.15 K [m/s]	speed of sound, 308.15 K [m/s]
[1], x2 = 0	1034.76	1028.56	1022.4	–	–	–	1713.4	1687.7	1662.7
[1], x2 = 0.0785	1034.48	1028.25	1022.07	–	–	–	1713.4	1688.1	1663.1
[1], x2 = 0.1191	1034.31	1028.07	1021.88	–	–	–	1713.8	1688.3	1663.3
[1], x2 = 0.2124	1033.88	1027.61	1021.38	–	–	–	1714.3	1688.9	1664
[1], x2 = 0.3055	1033.38	1027.08	1020.81	–	–	–	1715	1689.7	1664.8
[1], x2 = 0.4019	1032.76	1026.41	1020.08	–	–	–	1715.8	1690.6	1665.8
[1], x2 = 0.5096	1031.9	1025.46	1019.04	–	–	–	1717	1692.1	1667.6
[1], x2 = 0.6069	1030.86	1024.31	1017.78	–	–	–	1717.9	1693.4	1668.9
[1], x2 = 0.7123	1029.08	1022.4	1015.71	–	–	–	1717.1	1693.2	1669.1
[1], x2 = 0.8067	1026.34	1019.6	1012.81	–	–	–	1709.4	1687.6	1665.3
[1], x2 = 0.9031	1020.46	1014.13	1007.62	–	–	–	1672	1659.1	1644.5
[1], x2 = 0.9499	1014.51	1009.12	1003.34	–	–	–	1618.9	1618.6	1614.6
[2], x2 = 0	–	–	–	1.50729	1.50415	1.501	–	–	–
[2], x2 = 0.0785	–	–	–	1.50599	1.50284	1.49962	–	–	–
[2], x2 = 0.1191	–	–	–	1.50525	1.5021	1.49894	–	–	–
[2], x2 = 0.2124	–	–	–	1.50333	1.50016	1.49698	–	–	–
[2], x2 = 0.3055	–	–	–	1.50096	1.4978	1.49462	–	–	–
[2], x2 = 0.4019	–	–	–	1.49784	1.49467	1.49131	–	–	–
[2], x2 = 0.5096	–	–	–	1.49312	1.48997	1.48679	–	–	–
[2], x2 = 0.6069	–	–	–	1.48721	1.48405	1.48083	–	–	–
[2], x2 = 0.7123	–	–	–	1.47716	1.474	1.47076	–	–	–
[2], x2 = 0.8067	–	–	–	1.46233	1.45924	1.4559	–	–	–
[2], x2 = 0.9031	–	–	–	1.43179	1.42902	1.42645	–	–	–
[2], x2 = 0.9499	–	–	–	1.40179	1.39945	1.39679	–	–	–

— the NIST ThermoML archive (doi:10.1021/je201334p)
